# “And” between values parts separate entries of the source, which are not always exact repeats. Equal values may be shown once. Read-outs that look alike come from different tables or passages of the source.
# Key:
# Type in all cases: cell-based
# [1] = molecular target: T1, TMC1-mediated leak conductance (Mus musculus, UniProt Q8R4P5); test: Background/leak current (IBG) inhibition by blockers, whole-cell voltage clamp of OHCs; conditions: for IC50: OHCs, […] Ca2+, holding −70 mV, Hill fit, read-out: IC50, IBG (leak conductance)
# T1 sequence (Q8R4P5 1-757): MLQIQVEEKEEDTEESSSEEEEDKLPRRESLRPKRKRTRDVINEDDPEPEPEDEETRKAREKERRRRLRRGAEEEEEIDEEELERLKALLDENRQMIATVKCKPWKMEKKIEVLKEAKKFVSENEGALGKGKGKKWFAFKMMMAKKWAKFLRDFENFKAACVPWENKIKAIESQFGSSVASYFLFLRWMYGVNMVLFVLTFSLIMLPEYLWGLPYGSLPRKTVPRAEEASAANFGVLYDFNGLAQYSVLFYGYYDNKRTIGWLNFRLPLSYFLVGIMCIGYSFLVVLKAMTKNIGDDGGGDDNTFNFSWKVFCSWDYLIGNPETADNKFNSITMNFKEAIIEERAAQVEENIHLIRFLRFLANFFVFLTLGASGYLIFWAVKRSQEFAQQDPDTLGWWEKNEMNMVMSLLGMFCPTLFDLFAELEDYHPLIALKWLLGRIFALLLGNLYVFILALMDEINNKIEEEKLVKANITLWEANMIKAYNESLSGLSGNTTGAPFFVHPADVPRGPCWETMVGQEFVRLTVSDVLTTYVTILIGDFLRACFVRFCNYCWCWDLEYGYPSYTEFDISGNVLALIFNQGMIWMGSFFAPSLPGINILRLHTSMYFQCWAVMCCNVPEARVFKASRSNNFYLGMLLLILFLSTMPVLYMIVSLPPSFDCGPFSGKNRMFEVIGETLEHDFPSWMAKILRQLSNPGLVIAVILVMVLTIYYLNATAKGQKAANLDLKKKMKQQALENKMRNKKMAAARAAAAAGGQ
# Protocol: Hair cells were recorded using whole-cell voltage or current clamp as previously described ([Xiong et al., 2012]). All experiments were performed at room temperature (20–25°C). Briefly, the basilar membrane with hair cells was acutely dissected from neonatal mice. […] The acutely isolated or cultured basilar membrane was used for electrophysiological recording within 1 h. Hair cells were imaged under an upright microscope (BX51WI, Olympus, Tokyo, Japan) with a 60 × water immersion objective and an sCMOS camera (ORCA Flash4.0, Hamamatsu, Hamamatsu City, Japan) controlled by MicroManager 1.6 software ([Edelstein et al., 2010]). Patch pipettes were made from borosilicate glass capillaries (BF150-117-10, Sutter Instrument Co., Novato, CA) with a pipette puller (P-2000, Sutter) and polished on a microforge (MF-830, Narishige, Tokyo, Japan) to resistances of 4–6 M'Ω. […] Hair cells were recorded with a patch-clamp amplifier (EPC 10 USB and Patchmaster software, HEKA Elektronik, Lambrecht/Pfalz, Germany).
# (§1) The sampling rate was 1 kHz for leak current recording, 50 kHz for the IV protocol and current-clamp recording, and 100 kHz for unitary channel recording. The voltage-clamp used a –70 mV holding potential, and the current-clamp was held at 0 pA. Only recordings with a current baseline <20 pA in NMDG solution were used for statistical analysis.
# (§2) Dose-inhibition curves were fitted with a Hill equation: Ix/Imax=X^h/(K^h+X^h))
# (§3) Where K is the half-inhibition dose (IC50) and h is the Hill slope. Imax is the maximal current in control condition.
# MET channel = molecular target: T2, MET channel (Mus musculus, UniProt Q8R4P5); test: MET current (IMET) inhibition by blockers, whole-cell voltage clamp of OHCs with glass-probe hair-bundle deflection; conditions: for IC50: read-out: IC50, IMET
# T2 construct: the basilar membrane with hair cells was acutely dissected from neonatal mice; endogenous in cells; host or cells: outer hair cells of acutely dissected neonatal mouse cochlea
# Protocol: All experiments were performed at room temperature (20–25°C). Briefly, the basilar membrane with hair cells was acutely dissected from neonatal mice. […] The acutely isolated or cultured basilar membrane was used for electrophysiological recording within 1 h. […] Hair cells were recorded with a patch-clamp amplifier (EPC 10 USB and Patchmaster software, HEKA Elektronik, Lambrecht/Pfalz, Germany).
# as §1
# The hair bundle was deflected by two types of mechanical stimulus, fluid jet and glass probe. […] In brief, a 40 Hz sinusoidal wave stimulus was delivered by a 27-mm-diameter piezoelectric disc driven by a home-made piezo amplifier pipette with a tip diameter of 3–5 μm positioned 5–10 μm from the hair bundle to evoke maximum MET currents. […] The actuator was driven with voltage steps that were low-pass filtered at 10 KHz. To avoid bundle damage caused by overstimulation, the glass probe was shaped to have a slightly smaller diameter than the hair bundles, and the stimulation distance was 800 nm for macroscopic current and 100 nm for unitary channel recording. For hair bundle removal, a pipette with 1 μm diameter tip was used to suck away the hair bundles of the target OHCs. The hair-bundle-removed OHCs with good condition were further recorded. Examined by a fluid-jet stimulation, the OHCs without obvious MET current were further measured for the leak current.
# as §2, §3
# [2] = molecular target: T3, TMC1-mediated leak current (Mus musculus, UniProt Q8R4P5); test: MET-independent leak current (ILeak) in OHCs, MET channel closed by fluid jet or 100 μM DHS, NMDG subtraction (also by cochlear location and age); conditions: 0.3 mM Ca2+
# T3 construct: the basilar membrane with hair cells was acutely dissected from neonatal mice; endogenous in cells; host or cells: outer hair cells of acutely dissected neonatal mouse cochlea
# T3 sequence (Q8R4P5 1-757): T1 sequence (Q8R4P5 1-757)
# Protocol: Thus, the IBG may come from the resting MET current. […] A sinusoidal fluid jet deflected the hair bundle back and forth to open and close the MET channels (Figure 3A, inset). The Im was 98 pA at rest (Figure 3A,B), while the Im was 45 pA at fluid-jet-closed status (Figure 3B, #1). […] Thus, the ILeak persisted in either mechanical closure or pharmacological blockade of the MET channel (Figure 3C).
# Hair cells were recorded using whole-cell voltage or current clamp as previously described ([Xiong et al., 2012]). All experiments were performed at room temperature (20–25°C). Briefly, the basilar membrane with hair cells was acutely dissected from neonatal mice. […] The acutely isolated or cultured basilar membrane was used for electrophysiological recording within 1 h. Hair cells were imaged under an upright microscope (BX51WI, Olympus, Tokyo, Japan) with a 60 × water immersion objective and an sCMOS camera (ORCA Flash4.0, Hamamatsu, Hamamatsu City, Japan) controlled by MicroManager 1.6 software ([Edelstein et al., 2010]). Patch pipettes were made from borosilicate glass capillaries (BF150-117-10, Sutter Instrument Co., Novato, CA) with a pipette puller (P-2000, Sutter) and polished on a microforge (MF-830, Narishige, Tokyo, Japan) to resistances of 4–6 M'Ω. Intracellular solution contained (in mM): 140 CsCl, 1 MgCl2, 0.1 EGTA, 2 Mg-ATP, 0.3 Na-GTP, and 10 H-HEPES, pH 7.2), except when CsCl was replaced with KCl in current-clamp. Hair cells were recorded with a patch-clamp amplifier (EPC 10 USB and Patchmaster software, HEKA Elektronik, Lambrecht/Pfalz, Germany).
# The sampling rate was 1 kHz for leak current recording, 50 kHz for the IV protocol and current-clamp recording, and 100 kHz for unitary channel recording. The voltage-clamp used a –70 mV holding potential, and the current-clamp was held at 0 pA. […]
# The hair bundle was deflected by two types of mechanical stimulus, fluid jet and glass probe. […] The hair-bundle-removed OHCs with good condition were further recorded. Examined by a fluid-jet stimulation, the OHCs without obvious MET current were further measured for the leak current.
# T2 sequence (Q4KL25 whole entry partner, one chain of several): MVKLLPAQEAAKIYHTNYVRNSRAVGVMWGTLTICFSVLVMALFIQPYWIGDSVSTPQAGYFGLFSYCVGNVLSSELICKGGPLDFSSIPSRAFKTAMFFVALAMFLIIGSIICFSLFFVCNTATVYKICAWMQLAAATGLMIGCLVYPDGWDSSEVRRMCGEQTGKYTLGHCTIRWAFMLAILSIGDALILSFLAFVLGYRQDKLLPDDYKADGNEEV
# T2 sequence (Q8K467 29-153 partner, one chain of several): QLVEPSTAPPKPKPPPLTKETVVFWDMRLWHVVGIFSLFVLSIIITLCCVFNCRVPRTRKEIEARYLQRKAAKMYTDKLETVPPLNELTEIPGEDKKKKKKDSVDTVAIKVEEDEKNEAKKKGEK
# T2 sequence (Q9Z309 whole entry partner, one chain of several): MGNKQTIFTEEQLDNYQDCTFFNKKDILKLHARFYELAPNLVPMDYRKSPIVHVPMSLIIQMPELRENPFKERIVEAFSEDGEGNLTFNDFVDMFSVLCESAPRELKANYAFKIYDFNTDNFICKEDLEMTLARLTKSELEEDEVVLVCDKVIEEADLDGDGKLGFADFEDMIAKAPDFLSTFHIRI
smiles,measurement,setting,value
"[Cl][La]([Cl])[Cl] [La^3+, LaCl3]",IC50,[1],531 µM
same,IC50,"MET channel; OHCs, 800 nm step deflection, […] Ca2+, holding −70 mV, Hill fit",259 µM
"[Cl][Gd]([Cl])[Cl] [Gd^3+, GdCl3]",effect on the leak current,[1]; [Gd3+]o up to 80 μM,not affected
"CN[C@@H]1[C@H](O[C@H]2[C@H](O[C@H]3[C@H](O)[C@@H](O)[C@H](NC(=N)N)[C@@H](O)[C@@H]3NC(=N)N)O[C@@H](C)[C@]2(O)CO)O[C@@H](CO)[C@H](O)[C@H]1O [DHS, dihydrostreptomycin]",blocking effect on the current baseline,"[1]; 100 μM, working concentration that blocks MET channels",no blocking effect
same,Leak (normalized),[1]; DHS 100 μM,0.7251 and 0.66 and 1.086 and 0.62 and 0.8723 and 0.8832 and 0.9258
same,IC50,[1],487 µM
same,IC50,MET channel,15 µM
same,"DHS-NMDG (ILeak subtracted from that closed by 100 μM DHS), mean ± SEM",[2]; holding −70 mV,–65 ± 6 pA
same,membrane current in 144 Na + 0.1 DHS (IDHS),[2]; holding −70 mV,55 pA
same,"DHS-NMDG subtracted current, individual cells",[2]; source data of Figure 3C,-80.6086 pA and -48.8286 pA and -49.155 pA and -61.767 pA and -98.5004 pA and -60.6081 pA and -57.9458 pA and -59.6138 pA
[Gd+3] [Gd3+],"MET (normalized), first block c1-c15",MET channel; Gd3+ 4000,0.01958 and 0.0181 and 0.03486 and 0.01803 and 0.02788 and 0.02096 and 0.03255

# From publication PMC6853638, “TMC1 is an essential component of a leak channel that modulates tonotopy and excitability of auditory hair cells in mice” (eLife, 2019)
